Structure (SMILES) | pKa
CC(C)NCC(O)c1ccc(NS(C)(=O)=O)cc1 (centres undefined) | 9.76
O=C(NCC1CCCCN1)c1cc(OCC(F)(F)F)ccc1OCC(F)(F)F (centres undefined) | 9.3
CN(C)CCCN1c2ccccc2CCc2ccc(Cl)cc21 | 9.38
CN(C)CCC=C1c2ccccc2CCc2ccccc21 | 9.4
COc1ccc([C@@H]2Sc3ccccc3N(CCN(C)C)C(=O)[C@@H]2OC(C)=O)cc1 | 8.06
CC(C)NCC(O)COc1ccc(CCOCC2CC2)cc1 (centres undefined) | 9.21
CCc1nn(CCCN2CCN(c3cccc(Cl)c3)CC2)c(=O)n1CCOc1ccccc1 | 6.5
CC(CCc1ccccc1)NCC(O)c1ccc(O)c(C(N)=O)c1 (centres undefined) | 7.4
COc1ccc2c(c1)N(C[C@H](C)CN(C)C)c1ccccc1S2 | 9.19
O=c1n(CCCN2CCN(c3cccc(Cl)c3)CC2)nc2ccccn12 | 6.79
CCOC(=O)C1(c2ccccc2)CCN(C)CC1 | 8.7
CC(C)(C)NCC(O)COc1nsnc1N1CCOCC1 (centres undefined) | 8.8
CN1CCCC(n2nc(Cc3ccc(Cl)cc3)c3ccccc3c2=O)CC1 (centres undefined) | 9.54
Cc1ccccc1OCC(O)CNCCOc1ccc(C(N)=O)cc1 (centres undefined) | 7.9
COc1ccc2c3c1O[C@H]1[C@@H](O)C=C[C@H]4[C@@H](C2)N(C)CC[C@@]341 | 8.2
CC(C)(C)NCC(O)COc1cccc2c1C[C@H](O)[C@H](O)C2 (some centres undefined) | 9.67
CNCC[C@@H](Oc1ccccc1C)c1ccccc1 | 10.1
CC(C)NCC(O)COc1ccc(COCCOC(C)C)cc1 (centres undefined) | 9.57
CN1CCN2c3ncccc3Cc3ccccc3C2C1 (centres undefined) | 7.3
CN(C)CCCN1c2ccccc2Sc2ccccc21 | 9.28
CCN(C)C(=O)Oc1cccc([C@H](C)N(C)C)c1 | 8.99
OC(CNCC(O)C1CCc2cc(F)ccc2O1)C1CCc2cc(F)ccc2O1 (centres undefined) | 8.22
CNCCCC12CCC(c3ccccc31)c1ccccc12 | 10.5
CC(CN(C)C)CN1c2ccccc2CCc2ccccc21 (centres undefined) | 9.24
CC(C)(C)NCC(O)c1cc(O)cc(O)c1 (centres undefined) | 8.7
Cc1ccc(O)c([C@@H](CCN(C(C)C)C(C)C)c2ccccc2)c1 | 9.8
CC(CN1c2ccccc2Sc2ccccc21)N(C)C (centres undefined) | 9.1
CNCCC=C1c2ccccc2CCc2ccccc21 | 10.1
CNS(=O)(=O)Cc1ccc2[nH]cc(CCN(C)C)c2c1 | 9.5

From the pKa sets of Baltruschat and Czodrowski (2020)
